Measured values from patent publication US20090181963A1, “3H-[1,2,3]TRIAZOLO[4,5-D]PYRIMIDINE COMPOUNDS, THEIR USE AS mTOR KINASE AND PI3 KINASE INHIBITORS, AND THEIR [sequence]” (Wyeth, priority 2008, published 2009).
Values belong to the compound of their own block, whether it stands above or below them.

Key:
PI3 Kinase γ = PI3 Kinase γ (Homo sapiens, UniProt P48736); test: Fluorescence polarization assay for PI3K (PI3 Kinase γ); assay type: biochemical; conditions: diC8-PI(4,5)P2 substrate, 25 μM ATP, one hour at 25° C.
PI3 Kinase γ, sequence (P48736 whole entry): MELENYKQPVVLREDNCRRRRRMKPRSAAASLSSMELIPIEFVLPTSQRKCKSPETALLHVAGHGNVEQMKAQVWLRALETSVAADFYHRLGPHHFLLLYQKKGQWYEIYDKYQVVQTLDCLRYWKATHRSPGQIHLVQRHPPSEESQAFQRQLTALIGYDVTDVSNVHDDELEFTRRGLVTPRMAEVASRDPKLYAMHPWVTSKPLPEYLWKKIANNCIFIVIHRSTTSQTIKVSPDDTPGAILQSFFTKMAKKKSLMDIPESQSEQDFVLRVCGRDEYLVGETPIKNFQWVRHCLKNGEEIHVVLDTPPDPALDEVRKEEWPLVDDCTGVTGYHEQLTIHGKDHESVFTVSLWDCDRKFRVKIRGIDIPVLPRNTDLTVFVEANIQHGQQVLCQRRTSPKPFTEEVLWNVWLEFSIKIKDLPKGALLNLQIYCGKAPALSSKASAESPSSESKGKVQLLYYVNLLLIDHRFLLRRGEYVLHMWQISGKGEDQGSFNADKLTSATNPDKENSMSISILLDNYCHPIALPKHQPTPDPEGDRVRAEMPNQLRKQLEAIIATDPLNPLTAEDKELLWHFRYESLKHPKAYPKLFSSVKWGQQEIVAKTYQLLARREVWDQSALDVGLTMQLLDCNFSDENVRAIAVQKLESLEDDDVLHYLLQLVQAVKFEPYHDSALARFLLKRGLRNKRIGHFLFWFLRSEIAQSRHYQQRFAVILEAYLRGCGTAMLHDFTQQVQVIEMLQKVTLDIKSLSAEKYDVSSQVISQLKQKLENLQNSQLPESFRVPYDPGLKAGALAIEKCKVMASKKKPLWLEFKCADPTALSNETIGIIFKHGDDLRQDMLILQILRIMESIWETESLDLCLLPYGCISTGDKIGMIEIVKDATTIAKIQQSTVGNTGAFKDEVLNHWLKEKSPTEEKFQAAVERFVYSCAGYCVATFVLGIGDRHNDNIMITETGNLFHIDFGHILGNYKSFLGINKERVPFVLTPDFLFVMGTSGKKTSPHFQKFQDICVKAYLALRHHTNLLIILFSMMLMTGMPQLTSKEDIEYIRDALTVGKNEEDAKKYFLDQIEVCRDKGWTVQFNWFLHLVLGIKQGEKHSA
Description: Nunc 384 well black polypropylene fluorescent plates were used for PI3K assays. Reactions were quenched by the addition of EDTA to a final concentration of 10 μM. Final reaction volumes were 10 ml. […] Reactions were allowed to proceed for one hour at 25° C. After I hour, GST-tagged GRP1 (general receptor for phosphoinositides) PH domain fusion protein was added to a final concentration of 100 nM, and BODIPY-TMRI(1,3,4,5)P4 (Echelon) was also added to a final concentration of 5 nM. Final sample volumes were 25 μl with a final DMSO concentration of 0.8%. Assay Plates were read on PerkinElmer Envision plate readers with appropriate filters for Tamra [BODIPY-TMRI(1,3,4,5)P4]. Data obtained were used to calculate enzymatic activity and enzyme inhibition by inhibitor compounds.

PI3 Kinase α = PI3 Kinase α (Homo sapiens, UniProt P42336); test: Fluorescence polarization assay for PI3K (PI3 Kinase α); assay type: biochemical; conditions: diC8-PI(4,5)P2 substrate, 25 μM ATP, one hour at 25° C.
PI3 Kinase α, sequence (P42336 whole entry): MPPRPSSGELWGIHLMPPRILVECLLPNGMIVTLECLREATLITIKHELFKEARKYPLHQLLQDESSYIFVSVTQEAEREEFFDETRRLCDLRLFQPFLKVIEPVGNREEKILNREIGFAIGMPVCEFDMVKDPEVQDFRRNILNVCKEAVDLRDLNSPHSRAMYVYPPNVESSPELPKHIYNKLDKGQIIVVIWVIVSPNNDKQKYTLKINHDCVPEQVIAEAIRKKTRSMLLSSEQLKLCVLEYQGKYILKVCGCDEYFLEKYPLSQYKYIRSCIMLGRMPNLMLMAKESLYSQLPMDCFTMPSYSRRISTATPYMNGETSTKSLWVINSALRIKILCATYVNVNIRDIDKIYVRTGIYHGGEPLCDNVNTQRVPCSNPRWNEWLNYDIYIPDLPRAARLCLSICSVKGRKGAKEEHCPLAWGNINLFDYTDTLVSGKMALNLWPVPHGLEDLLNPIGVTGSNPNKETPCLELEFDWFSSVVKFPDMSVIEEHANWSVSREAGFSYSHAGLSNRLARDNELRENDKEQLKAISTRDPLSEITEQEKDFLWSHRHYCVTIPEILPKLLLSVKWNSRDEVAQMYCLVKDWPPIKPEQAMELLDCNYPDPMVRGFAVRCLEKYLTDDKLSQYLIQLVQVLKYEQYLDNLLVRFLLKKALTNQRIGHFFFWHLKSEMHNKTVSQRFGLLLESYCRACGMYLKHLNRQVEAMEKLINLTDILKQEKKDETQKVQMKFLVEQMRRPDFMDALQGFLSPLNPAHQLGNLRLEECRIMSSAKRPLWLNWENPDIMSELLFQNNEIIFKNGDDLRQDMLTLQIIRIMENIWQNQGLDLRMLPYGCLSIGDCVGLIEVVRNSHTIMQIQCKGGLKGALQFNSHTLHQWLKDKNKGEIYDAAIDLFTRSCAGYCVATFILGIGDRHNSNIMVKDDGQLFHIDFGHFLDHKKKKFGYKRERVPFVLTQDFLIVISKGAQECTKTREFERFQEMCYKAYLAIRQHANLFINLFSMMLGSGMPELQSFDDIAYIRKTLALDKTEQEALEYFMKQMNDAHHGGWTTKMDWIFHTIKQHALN
PI3 Kinase α, sequence (P27986 whole entry partner): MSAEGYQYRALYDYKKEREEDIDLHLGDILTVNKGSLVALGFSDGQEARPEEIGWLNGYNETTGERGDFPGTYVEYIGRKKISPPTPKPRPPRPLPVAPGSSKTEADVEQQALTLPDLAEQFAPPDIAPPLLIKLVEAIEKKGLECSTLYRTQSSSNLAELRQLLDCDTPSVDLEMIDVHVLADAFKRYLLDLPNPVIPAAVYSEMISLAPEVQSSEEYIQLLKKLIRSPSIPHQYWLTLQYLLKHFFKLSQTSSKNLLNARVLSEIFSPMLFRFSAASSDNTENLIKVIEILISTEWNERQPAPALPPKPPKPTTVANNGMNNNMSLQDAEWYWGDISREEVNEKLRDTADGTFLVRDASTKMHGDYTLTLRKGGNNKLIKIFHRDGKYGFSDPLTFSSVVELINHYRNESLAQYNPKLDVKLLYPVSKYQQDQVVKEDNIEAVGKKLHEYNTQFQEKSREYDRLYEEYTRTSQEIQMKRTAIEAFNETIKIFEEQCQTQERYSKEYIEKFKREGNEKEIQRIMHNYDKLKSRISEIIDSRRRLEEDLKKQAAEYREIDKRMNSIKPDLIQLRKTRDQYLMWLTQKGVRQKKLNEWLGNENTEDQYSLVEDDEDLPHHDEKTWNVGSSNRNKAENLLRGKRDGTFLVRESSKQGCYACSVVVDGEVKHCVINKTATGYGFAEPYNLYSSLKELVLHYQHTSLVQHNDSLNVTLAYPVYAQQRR

SMILES: CC(=O)NCCn1nnc2c(N3CCOCC3)nc(-c3cccc(CO)c3)nc21 [Example 8, N-(2-{5-[3-(hydroxymethyl)phenyl]-7-morpholin-4-yl-3H-[1,2,3]triazolo[4,5-d]pyrimidin-3-yl}ethyl)acetamide]
IC50 (PI3 Kinase γ): 196 nM
IC50 (PI3 Kinase α): 86 nM

SMILES: Oc1cncc(-c2nc(N3CCOCC3)c3nnn(C4CCN(Cc5cncc(Br)c5)CC4)c3n2)c1 [Example 16, 5-(3-{1-[(5-bromopyridin-3-yl)methyl]piperidin-4-yl}-7-morpholin-4-yl-3H-[1,2,3]triazolo[4,5-d]pyrimidin-5-yl)pyridin-3-ol]
IC50 (PI3 Kinase γ): 161 nM
IC50 (PI3 Kinase α): 61 nM

SMILES: O=C(NCCc1ccccc1)c1ccc(Cn2nnc3c(N4CCOCC4)nc(-c4cccc(O)c4)nc32)cc1 [Example 223, 4-{[5-(3-hydroxyphenyl)-7-morpholin-4-yl-3H-[1,2,3]triazolo[4,5-d]pyrimidin-3-yl]methyl}-N-(2-phenylethyl)benzamide]
IC50 (PI3 Kinase γ): 2510 nM
IC50 (PI3 Kinase α): 175 nM

SMILES: COC(=O)NC(=O)Nc1ccc(-c2nc(N3CCOCC3)c3nnn(C4CCN(C(=O)OC(C)(C)C)CC4)c3n2)cc1 [Example 169, tert-butyl 4-[5-(4-{[(methoxycarbonyl)carbamoyl]amino}phenyl)-7-morpholin-4-yl-3H-[1,2,3]triazolo[4,5-d]pyrimidin-3-yl]piperidine-1-carboxylate]
IC50 (PI3 Kinase γ): > 10000 nM
IC50 (PI3 Kinase α): > 10000 nM

SMILES: O=C(Nc1ccc(-c2nc(N3CCOCC3)c3nnn(CC(F)(F)F)c3n2)cc1)Nc1ccsc1 [Example 142, 1-{4-[7-morpholin-4-yl-3-(2,2,2-trifluoroethyl)-3H-[1,2,3]triazolo[4,5-d]pyrimidin-5-yl]phenyl}-3-(3-thienyl)urea]
IC50 (PI3 Kinase γ): 20 nM
IC50 (PI3 Kinase α): 4 nM

SMILES: O=C(Nc1ccc(-c2nc(N3CCOCC3)c3nnn(C4CCN(Cc5ccccc5)CC4)c3n2)cc1)C(F)(F)F [Example 5, N-{4-[3-(1-benzylpiperidin-4-yl)-7-morpholin-4-yl-3H-[1,2,3]triazolo[4,5-d]pyrimidin-5-yl]phenyl}-2,2,2-trifluoroacetamide]
IC50 (PI3 Kinase γ): 133 nM
IC50 (PI3 Kinase α): 68 nM

SMILES: O=C(Nc1ccccc1)Nc1ccc(-c2nc(N3CCOCC3)c3nnn(CC4CNC4)c3n2)cc1 [Example 189, 1-{4-[3-(azetidin-3-ylmethyl)-7-morpholin-4-yl-3H-[1,2,3]triazolo[4,5-d]pyrimidin-5-yl]phenyl}-3-phenylurea]
IC50 (PI3 Kinase γ): 28 nM
IC50 (PI3 Kinase α): 8 nM

SMILES: CCn1nnc2c(N3CCOC[C@@H]3C)nc(-c3ccc(NC(=O)Nc4cccs4)cc3)nc21 [Example 69, (S)-1-(4-(3-ethyl-7-(3-methylmorpholino)-3H-[1,2,3]triazolo[4,5-d]pyrimidin-5-yl)phenyl)-3-(thiophen-2-yl)urea]
IC50 (PI3 Kinase γ): 97.5 nM
IC50 (PI3 Kinase α): 8.5 nM

SMILES: CCn1nnc2c(N3CCOCC3)nc(-c3ccc(NC(=O)Nc4ccc(C(=O)NCCN5CCN(C)CC5)cc4)cc3)nc21 [Example 49, 4-({[4-(3-ethyl-7-morpholin-4-yl-3H-[1,2,3]triazolo[4,5-d]pyrimidin-5-yl)phenyl]carbamoyl}amino)-N-[2-(4-methylpiperazin-1-yl)ethyl]benzamide]
IC50 (PI3 Kinase γ): 25 nM
IC50 (PI3 Kinase α): < 3.1 nM

SMILES: CCn1nnc2c(N3CCOCC3)nc(-c3ccc(NC(=O)Nc4ccc(C(=O)N(C)C)cc4)cc3)nc21 [Example 61, 4-({[4-(3-ethyl-7-morpholin-4-yl-3H-[1,2,3]triazolo[4,5-d]pyrimidin-5-yl)phenyl]carbamoyl}amino)-N,N-dimethylbenzamide]
IC50 (PI3 Kinase γ): 12 nM
IC50 (PI3 Kinase α): 1.6 nM

SMILES: O=C(Nc1ccc(Cn2nnc3c(N4CCOCC4)nc(-c4cccc(O)c4)nc32)cc1)c1ccc(Cl)cc1 [Example 197, 4-Chloro-N-(4-{[5-(3-hydroxyphenyl)-7-morpholin-4-yl-3H-[1,2,3]triazolo[4,5-d]pyrimidin-3-yl]methyl}phenyl)benzamide]
IC50 (PI3 Kinase γ): 220 nM
IC50 (PI3 Kinase α): 66 nM

SMILES: Nc1ncc(-c2nc(N3CCOCC3)c3nnn(C4CCN(Cc5ccccc5)CC4)c3n2)cn1 [Example 2, 5-[3-(1-benzylpiperidin-4-yl)-7-morpholin-4-yl-3H-[1,2,3]triazolo[4,5-d]pyrimidin-5-yl]pyrimidin-2-amine]
IC50 (PI3 Kinase γ): 4330 nM
IC50 (PI3 Kinase α): 1820 nM

SMILES: O=C(Cn1nnc2c(N3CCOCC3)nc(-c3cccc(CO)c3)nc21)Nc1cccnc1 [Example 235, 2-{5-[3-(hydroxymethyl)phenyl]-7-morpholin-4-yl-3H-[1,2,3]triazolo[4,5-d]pyrimidin-3-yl}-N-pyridin-3-ylacetamide]
IC50 (PI3 Kinase γ): 2230 nM
IC50 (PI3 Kinase α): 637 nM

SMILES: CNC(=O)Nc1ccc(-c2nc(N3CCOCC3)c3nnn(C4CCN(C(=O)OC(C)(C)C)CC4)c3n2)cc1 [Example 168, tert-butyl 4-(5-{4-[(methylcarbamoyl)amino]phenyl}-7-morpholin-4-yl-3H-[1,2,3]triazolo[4,5-d]pyrimidin-3-yl)piperidine-1-carboxylate]
IC50 (PI3 Kinase γ): 3240 nM
IC50 (PI3 Kinase α): 200 nM

SMILES: CC(C)n1nnc2c(N3CCOCC3)nc(-c3ccc(NC(N)=O)cc3)nc21 [Example 96, [4-(3-isopropyl-7-morpholin-4-yl-3H-[1,2,3]triazolo[4,5-d]pyrimidin-5-yl)-phenyl]-urea]
IC50 (PI3 Kinase γ): 620 nM
IC50 (PI3 Kinase α): 49.7 nM

SMILES: CN(C)CCNC(=O)Cn1nnc2c(N3CCOCC3)nc(-c3cccc(CO)c3)nc21 [Example 239, N-[2-(dimethylamino)ethyl]-2-{5-[3-(hydroxymethyl)phenyl]-7-morpholin-4-yl-3H-[1,2,3]triazolo[4,5-d]pyrimidin-3-yl}acetamide]
IC50 (PI3 Kinase γ): 5060 nM
IC50 (PI3 Kinase α): 1130 nM

Next, values leading:

IC50 (PI3 Kinase γ): 1240 nM
IC50 (PI3 Kinase α): 134 nM
SMILES: Oc1cccc(-c2nc(N3CCOCC3)c3nnn(C4CN(Cc5ccccc5)C4)c3n2)c1 [Example 127, 3-[3-(1-benzylazetidin-3-yl)-7-morpholin-4-yl-3H-[1,2,3]triazolo[4,5-d]pyrimidin-5-yl]phenol]

IC50 (PI3 Kinase γ): 173 nM
IC50 (PI3 Kinase α): 74 nM
SMILES: CC(C)(C)OC(=O)Cn1nnc2c(N3CCOCC3)nc(-c3ccc(NC(=O)Nc4ccncc4)cc3)nc21 [Example 234, tert-butyl (7-morpholin-4-yl-5-{4-[(pyridin-4-ylcarbamoyl)amino]phenyl}-3H-[1,2,3]triazolo[4,5-d]pyrimidin-3-yl)acetate]

IC50 (PI3 Kinase γ): 37 nM
IC50 (PI3 Kinase α): 8 nM
SMILES: CCn1nnc2c(N3CCOCC3)nc(-c3ccc(NC(=O)Nc4ccnc(C)c4)cc3)nc21 [Example 35, 1-[4-(3-ethyl-7-morpholin-4-yl-3H-[1,2,3]triazolo[4,5-d]pyrimidin-5-yl)phenyl]-3-(2-methylpyridin-4-yl)urea]

IC50 (PI3 Kinase γ): 132 nM
IC50 (PI3 Kinase α): 34.5 nM
SMILES: CC(C)n1nnc2c(N3CCOCC3)nc(-c3ccc(NC(=O)Nc4cnoc4)cc3)nc21 [Example 94, 1-[4-(3-isopropyl-7-morpholin-4-yl-3H-[1,2,3]triazolo[4,5-d]pyrimidin-5-yl)-phenyl]-3-isoxazol-4-yl-urea]

IC50 (PI3 Kinase γ): 618 nM
IC50 (PI3 Kinase α): 100 nM
SMILES: CNCCCCn1nnc2c(N3CCOCC3)nc(-c3cccc(O)c3)nc21 [Example 203, 3-{3-[4-(Methylamino)butyl]-7-morpholin-4-yl-3H-[1,2,3]triazolo[4,5-d]pyrimidin-5-yl}phenol]

IC50 (PI3 Kinase γ): 7 nM
IC50 (PI3 Kinase α): < 1.7 nM
SMILES: CCn1nnc2c(N3CCOCC3)nc(-c3ccc(NC(=O)Nc4ccc(C(=O)N5CCNC(C)(C)C5)cc4)cc3)nc21 [Example 57, 1-{4-[(3,3-dimethylpiperazin-1-yl)carbonyl]phenyl}-3-[4-(3-ethyl-7-morpholin-4-yl-3H-[1,2,3]triazolo[4,5-d]pyrimidin-5-yl)phenyl]urea]

IC50 (PI3 Kinase γ): 2860 nM
IC50 (PI3 Kinase α): 231 nM
SMILES: Cn1nccc1CN1CCC(n2nnc3c(N4CCOCC4)nc(-c4cncc(O)c4)nc32)CC1 [Example 30, 5-(3-{1-[(1-methyl-1H-pyrazol-5-yl)methyl]piperidin-4-yl}-7-morpholin-4-yl-3H-[1,2,3]triazolo[4,5-d]pyrimidin-5-yl)pyridin-3-ol]

IC50 (PI3 Kinase γ): 19 nM
IC50 (PI3 Kinase α): 3 nM
SMILES: CCn1nnc2c(N3CCOCC3)nc(-c3ccc(NC(=O)Nc4ccncc4)cc3)nc21 [Example 33, 1-[4-(3-ethyl-7-morpholin-4-yl-3H-[1,2,3]triazolo[4,5-d]pyrimidin-5-yl)phenyl]-3-pyridin-4-ylurea]

IC50 (PI3 Kinase γ): 2420 nM
IC50 (PI3 Kinase α): 1150 nM
SMILES: CCN(CC)C(=O)c1ccc(Cn2nnc3c(N4CCOCC4)nc(-c4cccc(O)c4)nc32)cc1 [Example 220, N,N-diethyl-4-{[5-(3-hydroxyphenyl)-7-morpholin-4-yl-3H-[1,2,3]triazolo[4,5-d]pyrimidin-3-yl]methyl}benzamide]

IC50 (PI3 Kinase γ): 102 nM
IC50 (PI3 Kinase α): 27.5 nM
SMILES: O=C(O)c1cccc(-n2nnc3c(N4CCOCC4)nc(-c4cccc(O)c4)nc32)c1 [Example 118, 3-[5-(3-hydroxyphenyl)-7-morpholin-4-yl-3H-[1,2,3]triazolo[4,5-d]pyrimidin-3-yl]benzoic acid]

IC50 (PI3 Kinase γ): 92.5 nM
IC50 (PI3 Kinase α): 13.5 nM
SMILES: CCn1nnc2c(N3CCOC[C@@H]3C)nc(-c3ccc(NC(=O)Nc4ccc(C#N)cc4)cc3)nc21 [Example 75, (S)-1-(4-cyanophenyl)-3-(4-(3-ethyl-7-(3-methylmorpholino)-3H-[1,2,3]triazolo[4,5-d]pyrimidin-5-yl)phenyl)urea]

IC50 (PI3 Kinase γ): 314 nM
IC50 (PI3 Kinase α): 22.5 nM
SMILES: NC(=O)c1cccc(-n2nnc3c(N4CCOCC4)nc(-c4cccc(O)c4)nc32)c1 [Example 119, 3-[5-(3-hydroxyphenyl)-7-morpholin-4-yl-3H-[1,2,3]triazolo[4,5-d]pyrimidin-3-yl]benzamide]

IC50 (PI3 Kinase γ): 1400 nM
IC50 (PI3 Kinase α): 111 nM
SMILES: CC(C)(C)OC(=O)N1CCC(n2nnc3c(N4CCOCC4)nc(-c4cnc(N)nc4)nc32)CC1 [Example 148, tert-butyl 4-[5-(2-aminopyrimidin-5-yl)-7-morpholin-4-yl-3H-[1,2,3]triazolo[4,5-d]pyrimidin-3-yl]piperidine-1-carboxylate]

IC50 (PI3 Kinase γ): 895 nM
IC50 (PI3 Kinase α): 179 nM
SMILES: CCn1nnc2c(N3CCOCC3)nc(-c3ccc(NC(=O)Nn4cnnc4)cc3)nc21 [Example 36, 1-[4-(3-ethyl-7-morpholin-4-yl-3H-[1,2,3]triazolo[4,5-d]pyrimidin-5-yl)phenyl]-3-(4H-1,2,4-triazol-4-yl)urea]
